# In US20100035793A1, “Modulators” (priority 2005, published 2010):
# Non-standard residues stand in square brackets, D forms with d. No end group written: not given here. pY = N[C@@H](Cc1ccc(OP(=O)(O)O)cc1)C(=O)O
# How the values were obtained:
# [1] = target: T1, Stat3 (Homo sapiens, UniProt P40763); settings: cited from earlier work
# [2] = target: JAK2 (Homo sapiens, UniProt O60674); settings: cited from earlier work
# [3] = target: T1, Stat3; settings: cited from earlier work; remark: listed apart in the source
# [4] = test system: breast carcinoma cells; settings: cited from earlier work
# [5] = target: T1, Stat3; settings: cited from earlier work; for levels of DNA binding activities of STAT 3: peptide present in nuclear extracts
# [6] = test system: STAT 5; settings: peptide present in nuclear extracts; cited from earlier work
# [7] = test system: Stat3; assay: Western blot of Stat3 expression in KF48 infected with retroviral Stat3 siRNAs; format: cell-based, human; settings: KF48 infected with retrovirus expressing Stat3 siRNAs
# Experimental: (§1) These vectors containing Stat3 siRNA targets and empty vector were transfected into 293T-based Phoenix-Ampho packaging cell line for 7-9 h, and the amphotropic retroviruses were harvested 48 h later, pelleted to remove nonadherent cells and cellular debris, and filtered through a […] cellulose acetate membrane. The keloid fibroblasts were infected overnight in the presence of 4 μg/ml polybrene, and replaced with fresh 10% FBS/DMEM the following day. Cells were assayed for Western blot 48 h after infection, or for XTT cell proliferation, or for migration assay which was performed by replating the cells into 8 μM Transwell membrane and fixed 24 h later as described above.
# (§2) Western blot. Cells were either harvested in radioimmune precipitation assay (RIPA) buffer (150 mM NaCl, 50 mM Tris-HCl, pH 7.2, 1% deoxycholic acid, 1% Triton X-100, 0.25 mM EDTA, pH 8.0) containing protease inhibitor cocktail (Roche Diagnostics Corporation, Indianapolis, Ind., USA), or lysis buffer containing 150 mM NaCl, 10 mM Tris-HCl, pH 7.4, 0.5% Triton-X-100, 0.5% NP-40, 1 mM EDTA, 0.2 mM sodium vanadate, supplemented with protease inhibitor tablet. Total cell lysates were collected after centrifugation for 10 min at 4° C., and resolved in 7.5% or 10% polyacrylamide gel electrophoresis, and transferred to PVDF membranes (Bio-Rad Laboratories, Hercules, Calif., USA). The membranes were blotted with anti-phosphoTyr705 Stat3 antibody (1:1000 dilution; Cell Signaling, Beverly, Mass., USA) overnight at 4° C. overnight in PBS containing 1% BSA and 0.1% Tween 20, washed with PBS containing 0.2% Tween 20, and incubated with secondary anti-rabbit IgG antibody (1:2000 dilution; Sigma, Saint Louis, Mo., USA) for 1 h at room temperature, washed with PBS containing 0.2% Tween 20, followed by enhanced chemiluminescence (Amersham Biosciences, Buckinghamshire, UK) or Lumi-Light (Roche Diagnostics Corporation, Indianapolis, USA), and autoradiography. The membranes were stripped with Restore Western Blotting Stripping Buffer (Pierce, Rockford, Ill., USA) according to manufacturer's instructions and reblotted with anti-phosphoSer727 Stat3 (1:1000 dilution; Cell Signaling, Beverly, Mass., USA) and secondary anti-mouse IgG antibody (1:2000 dilution; Sigma, Saint Louis, Mo., USA). The stripping and reblotting procedure was repeated with monoclonal anti-Stat3 (1:1000 dilution; BD Transduction Laboratories), polyclonal anti-actin (1:1000 dilution; Sigma) and monoclonal anti-collagen antibody (1:1000 dilution; MONOSAN).
# [8] = test system: Stat3; assay: Western blot of Stat3 expression in packaging cells transfected with Stat3 siRNA vectors; design: species or system human; settings: 293T-based amphotropic packaging cell line, FIG. 5A left panel
# Source text: Retroviral Stat3 siRNA. Four different targets designed against STAT 3 were selected and cloned into BglII and XhoI into pSUPER.retro.puro from OligoEngine, and sequenced (STAT 3 Genbank Accession number NM_139276). The four targets are named STAT 3 siRNA 1 (nt. 461-480) SEQ ID 1, STAT 3 siRNA 2 (nt. 1264-1283) SEQ ID 2, STAT 3 siRNA 3 (nt. 364-383) GATTGGGCATATGCGGCCA, and STAT 3 siRNA 4 (nt. 1662-1681) SEQ ID 3. The corresponding primers with a 9-nt short hairpin in the middle (bold) are
# as §1
# as §2, with “The stripping and reblotting procedure was repeated with monoclonal anti-Stat3 (1:1000 dilution; BD Transduction Laboratories), polyclonal anti-actin (1:1000 dilution; Sigma) and monoclonal anti-collagen antibody (1:1000 dilution; MONOSAN).” left out
# [9] = test system: collagen; assay: Western blot of collagen production in KF48 keloid fibroblasts; format: cell-based, human; settings: KF48 infected with retroviral Stat3 siRNAs, FIG. 5A right panel
# Experimental: as §1
# Inhibition of Stat3 was also evaluated by incubating KF48 for 30 min with various doses of Cucurbitacin I, an inhibitor of Jak2/Stat3 activation (32), or with DMSO alone as a control, followed by further incubation in normal growth media for 48 h. […] Cucurbitacin I was acquired from Galchimia (A Corufia, Spain).
# as §2, with “The membranes were stripped with Restore Western Blotting Stripping Buffer (Pierce, Rockford, Ill., USA) according to manufacturer's instructions and reblotted with anti-phosphoSer727 Stat3 (1:1000 dilution; Cell Signaling, Beverly, Mass., USA) and secondary anti-mouse IgG antibody (1:2000 dilution; Sigma, Saint Louis, Mo., USA). The stripping and reblotting procedure was repeated with monoclonal anti-Stat3 (1:1000 dilution; BD Transduction Laboratories), polyclonal anti-actin (1:1000 dilution; Sigma) and monoclonal anti-collagen antibody (1:1000 dilution; MONOSAN).” left out
# Methods of assessing polypeptides regulated by STAT Collagen may be regulated by STAT 3 activation. monoclonal anti-human collagen I, II, III Was purchased from MONOSAN (Uden, Netherlands). […] These were detected via western blot as described above.
# [10] = test system: KF48 keloid fibroblasts; assay: Scratch-wound migration assay; format: cell-based, human; settings: KF48 infected with Stat3 siRNA retrovirus, 15 h after wounding, vs vector
# Experimental: Cell migration in keloidflbroblasts is inhibited by Stat3 siRNA and Cucurbitacin I. To examine the role of Stat3 in cell migration of skin fibroblasts, KF48 cells were infected with retrovirus expressing Stat3 siRNAs and scratch assays were performed as previously described. […] Three non-overlapping fields were acquired, and graphically illustrated as mean±SD in FIG. 8B. Transmembrane cell migration assays were also performed in triplicates as described earlier, and quantified as mean±SD (FIG. 8C). […] The right panels in FIG. 8B and 8C depict immunoblots of Stat3 and actin to show the efficiencies of inhibition by the Stat3 siRNAs.
# The role of Stat3 in cell migration was also examined using Cucurbitacin I in the scratch assay. KF48 cells were first incubated with 10 μg/ml mitomycin C for 2 h, before treating for 30 min with DMSO or 1 μM Cucurbitacin I. The scratch-wound was performed, followed by further incubation in normal growth media. Pictures were taken at 0 h, 22 h and 48 h after wounding.
# Migration assay. For migration assay using the scratch method, cells were grown to confluence and incubated with 10 μg/ml mitomycin C for 2 h, before a scratch wound was introduced using a yellow pipette tip. Cells were further incubated in normal growth media and pictures were taken at 0 h, 14 h, 15 h, 22 h, or 48 h after wounding. Three non-overlapping fields were captured by Axiovert 135 microscope from Zeiss and cells migrated into the wound site were counted and presented as mean±SD.
# [11] = test system: KF48 keloid fibroblasts; assay: Transwell migration assay; format: cell-based, human; settings: KF48 infected with Stat3 siRNA retrovirus, vs vector
# Experimental: as §1
# Migration assay was also performed using the Transwell 8.0 μM pore size polycarbonate membrane (Corning Inc.). 1×10^4 cells/well were seeded at the top of the insert in 0.2 ml serum-free DMEM, with 0.5 ml 10% FBS/DMEM in the bottom chamber as chemoattractant. 24 h later, cells were washed once in cold PBS, before fixing with 4% paraformaldehyde in PBS for 15 min at room temperature. Cells were permeabilized with 0.1% Triton X-100 in PBS for 3 min at room temperature, and stained with haematoxylin for 10 min at room temperature, followed by destain with water thrice. Cells from the top of the inserts were removed by cotton swabs, and inserts were left to dry. The inserts were mounted onto slides and three non-overlapping fields of cells migrated to the bottom of the inserts were captured using Leica DM4000 B microscope.
# [12] = test system: KF48 keloid fibroblasts; assay: XTT proliferation assay; format: cell-based, human
# Source text: Inhibition of Stat3 decreases cell proliferation. Enhanced fibroblast proliferation is a characteristic of keloid tissue. In agreement with this, keloid fibroblasts grown in normal culture conditions proliferated faster than normal fibroblasts, as observed in KF48 and KF107 compared to NF2 and NF4 (FIG. 6A). To investigate whether Stat3 is involved in the enhanced keloid fibroblast proliferation, KF48 was infected with retrovirus expressing Stat3 siRNAs, and cell proliferation was examined. […] XTT proliferation assay. Cells seeded at 3,000 cells/well in 96-well plates and grown in normal growth conditions, or infected with retroviral Stat3 siRNAs, were assayed for proliferation using the XrT proliferation kit (Roche) according to the manufacturer's instructions. The readings were taken at 450 nm and referenced against 690 nm, 2 h after the addition of the XrT reagent. Each sample was performed at quadruplicates in two to three independent experiments. Data are presented as mean±SD
# Cell proliferation was also investigated by treating KF48 cells with various doses of Cucurbitacin I or with DMSO control, before incubating in normal growth media and examined daily over 4 days. Cucurbitacin I concentration as low as I μM was able to inhibit cell proliferation of KF48 compared to DMSO and untreated control (0 μM), whereas Cucurbitacin I exposure at 5 μM and above seemed to cause cell death (FIG. 6C).
# Chain of JAK2 (O60674 whole entry, species assumed): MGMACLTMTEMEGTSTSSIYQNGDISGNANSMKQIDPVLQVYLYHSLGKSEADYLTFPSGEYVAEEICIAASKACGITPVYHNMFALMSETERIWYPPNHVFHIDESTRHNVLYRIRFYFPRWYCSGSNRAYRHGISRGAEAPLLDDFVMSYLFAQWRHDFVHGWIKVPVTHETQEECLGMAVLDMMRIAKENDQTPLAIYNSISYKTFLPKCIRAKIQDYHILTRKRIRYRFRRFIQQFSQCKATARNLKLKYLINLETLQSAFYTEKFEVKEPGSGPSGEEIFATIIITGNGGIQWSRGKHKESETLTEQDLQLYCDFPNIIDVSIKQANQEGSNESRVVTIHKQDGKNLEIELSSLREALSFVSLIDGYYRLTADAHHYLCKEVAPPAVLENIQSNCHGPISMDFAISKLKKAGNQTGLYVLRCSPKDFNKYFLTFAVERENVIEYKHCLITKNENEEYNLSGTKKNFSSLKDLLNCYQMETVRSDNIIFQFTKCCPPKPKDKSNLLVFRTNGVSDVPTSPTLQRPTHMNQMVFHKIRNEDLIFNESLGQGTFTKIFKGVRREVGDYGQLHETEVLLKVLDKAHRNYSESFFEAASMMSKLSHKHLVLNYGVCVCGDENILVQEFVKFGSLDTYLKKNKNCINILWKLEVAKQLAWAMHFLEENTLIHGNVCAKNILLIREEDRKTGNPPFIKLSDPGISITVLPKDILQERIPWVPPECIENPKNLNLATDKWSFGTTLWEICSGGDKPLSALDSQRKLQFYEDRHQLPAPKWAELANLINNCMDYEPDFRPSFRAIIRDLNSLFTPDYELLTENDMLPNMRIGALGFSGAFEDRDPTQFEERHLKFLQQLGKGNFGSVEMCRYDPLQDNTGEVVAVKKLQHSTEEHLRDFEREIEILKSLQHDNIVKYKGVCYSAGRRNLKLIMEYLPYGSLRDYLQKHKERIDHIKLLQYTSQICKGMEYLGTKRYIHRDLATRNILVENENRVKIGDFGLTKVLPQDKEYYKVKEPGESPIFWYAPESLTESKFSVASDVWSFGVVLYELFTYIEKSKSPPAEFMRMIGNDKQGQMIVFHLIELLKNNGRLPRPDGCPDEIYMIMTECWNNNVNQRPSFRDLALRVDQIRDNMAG
# T1 sequence (P40763 whole entry, species assumed): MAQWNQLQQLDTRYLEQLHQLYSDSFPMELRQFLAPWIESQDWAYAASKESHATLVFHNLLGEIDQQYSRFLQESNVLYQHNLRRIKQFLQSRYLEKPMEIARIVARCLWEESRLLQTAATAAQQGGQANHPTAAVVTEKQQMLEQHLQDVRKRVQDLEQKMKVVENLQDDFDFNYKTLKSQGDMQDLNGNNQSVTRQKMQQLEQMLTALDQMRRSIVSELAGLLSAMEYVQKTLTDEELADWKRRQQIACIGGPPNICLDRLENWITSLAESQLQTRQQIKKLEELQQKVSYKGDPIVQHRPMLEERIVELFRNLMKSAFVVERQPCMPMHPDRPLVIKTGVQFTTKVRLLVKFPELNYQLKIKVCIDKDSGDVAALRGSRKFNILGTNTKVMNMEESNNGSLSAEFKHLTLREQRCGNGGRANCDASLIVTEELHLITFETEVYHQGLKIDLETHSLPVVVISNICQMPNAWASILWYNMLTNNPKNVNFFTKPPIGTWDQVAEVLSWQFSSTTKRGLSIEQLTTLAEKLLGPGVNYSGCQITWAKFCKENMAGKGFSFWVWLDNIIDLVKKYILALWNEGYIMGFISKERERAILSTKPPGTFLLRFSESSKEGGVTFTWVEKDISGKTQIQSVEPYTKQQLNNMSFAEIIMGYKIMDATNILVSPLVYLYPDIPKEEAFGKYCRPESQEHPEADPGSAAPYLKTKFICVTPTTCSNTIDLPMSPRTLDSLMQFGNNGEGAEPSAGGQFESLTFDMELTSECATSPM
Compound,inhibition of activation of STAT 3 [1],inhibition of activation of JAK2 [2],inhibition of Stat3 expression [7],inhibitory effect on Stat3 expression [8],"rate of cell migration, scratch assay [10]","cell migration, Transwell [11]",other results
CC(=O)OC(C)(C)/C=C/C(=O)[C@](C)(O)[C@H]1[C@H](O)C[C@@]2(C)[C@@H]3CC=C4[C@@H](C[C@H](O)C(=O)C4(C)C)[C@]3(CO)C(=O)C[C@]12C [Cucurbitacin A],not,inhibits,–,–,–,–,–
CC(=O)OC(C)(C)/C=C/C(=O)[C@](C)(O)[C@H]1[C@H](O)C[C@@]2(C)[C@@H]3CC=C4[C@H](C[C@H](O)C(=O)C4(C)C)[C@]3(C)C(=O)C[C@]12C [Cucurbitacin B],inhibit,inhibit,–,–,–,–,–
CC(=O)OC(C)(C)/C=C/C(=O)[C@](C)(O)[C@H]1[C@H](O)C[C@@]2(C)[C@@H]3CC=C4[C@@H](C=C(O)C(=O)C4(C)C)[C@]3(C)C(=O)C[C@]12C [Cucurbitacin E],inhibit,inhibit,–,–,–,–,–
C[C@@H]1CC(=O)c2c(ccc3c2C(=O)c2cccc(O)c2C3=O)C1 [STA-21],–,–,–,–,–,–,Stat3-dependent luciferase activity [3]: inhibits; Stat3 DNA binding activity [3]: inhibits; Stat3 dimerization [3]: inhibits; effect on cells in which constitutive Stat3 signaling is absent [4]: minimal effect; survival of breast carcinoma cells with constitutive Stat3 signaling [4]: reduces the survival
Cucurbitacin Q,inhibits,not,–,–,–,–,–
"PY*L: tripeptide derivative of PY*LKTK, Y* represents phosphotyrosine (Pro-[pY]-Leu; UniProt P40763 704-706, looked up, fragment)",–,–,–,–,–,–,STAT 3 biochemical activity and biological function [5]: inhibit
"PY*LKTK: Stat3 SH2 domain-binding phosphopeptide, Y* represents phosphotyrosine (P[pY]LKTK; UniProt P40763 704-709, looked up, fragment)",–,–,–,–,–,–,levels of DNA binding activities of STAT 5 [6]: no effect; STAT 3 biochemical activity and biological function [5]: inhibit; levels of DNA binding activities of STAT 3 [5]: significant reduction
"PYLKTK: non-phosphorylated control peptide of PY*LKTK (UniProt P40763 704-709, looked up, fragment)",–,–,–,–,–,–,levels of DNA binding activities of STAT 3 [5]: not
"Stat3 siRNA 1: siRNA target nt. 461-480 of STAT 3 (NM—139276), AGTCGAATGTTCTCTATCA, hairpin primers SEQ ID 4 and 5, retroviral vector",–,–,inhibit Stat3 expression,inhibitory effect,impede the rate of cell migration,hinder the cell migration,inhibition of collagen production [9]: inhibition of collagen production
"Stat3 siRNA 2: siRNA target nt. 1264-1283 of STAT 3, GGCGTCCAGTTCACTACTA, hairpin primers SEQ ID 6 and 7, retroviral vector",–,–,inhibit Stat3 expression,inhibitory effect,impede the rate of cell migration,hinder the cell migration,inhibition of collagen production [9]: inhibition of collagen production
"Stat3 siRNA 3: siRNA target nt. 364-383 of STAT 3, GATTGGGCATATGCGGCCA, retroviral vector; does not inhibit Stat3",–,–,does not inhibit Stat3,not,did not,did not,–
"Stat3 siRNA 4: siRNA target nt. 1662-1681 of STAT 3, GCGTCCATCCTGTGGTACA, hairpin primers SEQ ID 8 and 9, retroviral vector",–,–,inhibit Stat3 expression,inhibitory effect,impede the rate of cell migration,hinder the cell migration,"relative effectiveness among the siRNAs tested ([12]; keloid fibroblast collagen production, proliferation and migration): most effective; cell proliferation of KF48 ([12]; retroviral Stat3 siRNA, vs noninfected, vector and Stat3 siRNA 3, FIG. 6B): decreased cell proliferation; inhibition of collagen production [9]: inhibition of collagen production"
